The IC50 is the concentration needed to halve the response being measured.

In data set [1] the test system is normal human gingival fibroblasts. Briefly: MTT cell viability assay, normal fibroblasts. It is filed as cell-based. The note with it: 48 h. The procedure: (§1) Cells and reagents. Human SCC-4, SCC-9 and SCC-25 cells, derived from a human oral tongue SCC were obtained from the ATCC (CRL-1624; CRL-1629 and CRL-1628, respectively) and maintained at 1:1 DMEM/F12 (Dulbecco’s modified Eagle medium and Ham’s F12 medium; Gibco, Thermo Fisher, Waltham, MA, USA) supplemented with 10% (v/v) FBS (fetal bovine serum; Invitrogen, Thermo Fisher, Waltham, MA, USA) and 400 ng/mL hydrocortisone (Sigma-Aldrich Co., St. Louis, MO, USA). Primary normal human gingival fibroblasts were obtained from the ATCC (PCS-201-018), maintained in DMEM supplemented with 10% (v/v) FBS, and used in a maximum of 6 passages. Cells were grown in a humidified environment containing 5% CO2 at 37 °C. […] Carboplatin in water (Fauldcarbo®; Libbs Farmacêutica, São Paulo, SP, Brazil) was used as a standard anticancer compound.
(§2) Cell viability assay (cytotoxicity) and stability assay. To assess cell viability, cells were grown in triplicate in 96-well plates (5 × 10^3 cells/well) until confluence when treated with the different compounds as in Machado et al.. Briefly, DMSO in the same concentrations was used as a 100% cell viability control. After 48 h, cells were incubated with 5 mg/mL MTT reagent (3-(4,5-dimethyl-2-thiazolyl)-2,5-diphenyl-2H-tetrazolium bromide) (Sigma-Aldrich Co., St. Louis, MO, USA) for 3.5 h. Formazan crystals were dissolved in MTT solvent (DMSO/methanol 1:1 v/v) and the absorbance at 560 nm was evaluated using an EPOCH microplate spectrophotometer (BioTek Instruments, Winooski, VT, USA) with background absorbance at 670 nm subtracted. Each of the eighteen compounds was tested at six or seven different concentrations, ranging from 0.3 µM to 200 µM in cancer cell lines (SCC-4, SCC-9 and SCC-25) and 0.4 µM to 300 µM in normal primary human gingival fibroblast.
(§3) Statistical analysis, IC50 calculation. IC50 values for MTT assays were obtained by non-linear regression using the GraphPad Prism 5.0 software (GraphPad, San Diego, CA, USA) from at least three independent experiments. Data are presented as means ± SD. A dose-response (inhibitor) vs response curve using the least squares method was used to determine the IC50, SD and R2 of the data. The selectivity index was calculated as S.I. = IC50 of the compound in normal oral fibroblast cells/IC50 of the same compound for each oral cancer cell line (SCC-4, SCC-9 and SCC-25) and the mean was calculated when indicated.
(In general: Tetrazolium dyes change colour on reduction, which living cells bring about.)

A further data set has as its system SCC-9 (OSCC cells). Kind of data set: MTT cell viability assay (cytotoxicity), SCC9. The note with it: for Selective Index (S.I.): IC50 normal oral fibroblasts/IC50 SCC-9. It is filed as cell-based, Human. The procedure: as §1, §2, §3
The next data set deals with SCC-4 cells. Kind of data set: MTT cell viability assay, SCC4. The format is cell-based, Human. The note with it: read-out: SCC4 IC50. The procedure:
as §1, §2, §3

Another data set deals with SCC9 cells. Kind of data set: Stability test (pre-incubation at 37 °C, then MTT on SCC9). It is filed as cell-based, Human. As to conditions: 2 × IC50 pre-incubated 0-48 h at 37 °C, then SCC9 48 h. The procedure:
After the desired treatment time was reached, the medium containing the compound was replaced with untreated culture medium and the MTT assay was performed at the end of both experiments.

The subject of data set [2] is OSCC cell lines (SCC 4, SCC-9 and SCC-25). Briefly: MTT assay, mean over three OSCC cell lines and average selectivity index. It is filed as cell-based, Human. The note with it: for IC50: Homo sapiens, mean of SCC9, SCC25, SCC4, read-out: Oral Tumor Cells Mean IC50; for Average S.I.: average selectivity index over SCC-4, SCC-9, SCC-25 vs normal fibroblasts. The procedure:
as §2, §3

The next data set relates to SCC-25 cells. Kind of data set: MTT cell viability assay, SCC25. It is filed as cell-based, Human. The note with it: read-out: SCC25 IC50. The procedure:
as §1, §2, §3

Where [3] appears, read: Homo sapiens, Fibroblast, MTT, Table 1, read-out: Primary Gengival Fibroblast IC50.
The mark [4] stands for this setting: Homo sapiens, SCC-9, MTT, 48 h, Table 1, read-out: SCC9—Oral Cancer IC50.
The mark [5] stands for this setting: MTT, Table 1, read-out: Primary Gengival Fibroblast IC50.
Where [6] appears, read: MTT, 48 h, Table 1, read-out: SCC9—Oral Cancer IC50.

Where two headings read alike, the source gives them in different places.

For the compound `COC(=O)OC1=C(C(c2ccc([N+](=O)[O-])cc2)N(Cc2ccccc2)C(=O)OC)C(=O)c2ccccc2C1=O` (centres unmarked) [5c, Methylbenzyl((3-((methoxycarbonyl)oxy)-1,4-dioxo-1,4-dihydronaphthalen-2-yl)(4-nitrophenyl)methyl)carbamate], the half-inhibitory concentration (IC50) is 38.3 µM in data set [1] (setting [3]) and 24.8 µM in the data set with SCC-9 (OSCC cells) (setting [4]). Also, the “Selective Index (S.I.)” value with SCC-9 (OSCC cells) came out at 1.54.
On the same counts, the results for `COC(=O)OC1=C(C(c2ccc(C)cc2)N(Cc2ccccc2)C(=O)OC)C(=O)c2ccccc2C1=O` (centres unmarked) [5f, Methylbenzyl((3-((methoxycarbonyl)oxy)-1,4-dioxo-1,4-dihydronaphthalen-2-yl)(p-tolyl)methyl)carbamate] are 45.7 µM, 22.2 µM and 2.05.
On the same counts, the results for `COC(=O)OC1=C(C(c2ccc(F)cc2)N(Cc2ccccc2)C(=O)OC)C(=O)c2ccccc2C1=O` (centres unmarked) [5e, Methylbenzyl((4-fluorophenyl)(3-((methoxycarbonyl)oxy)-1,4-dioxo-1,4-dihydronaphthalen-2-yl)methyl)carbamate] are 40.1 µM, 22.1 µM and 1.81.
Consider “Methyl benzyl((4-nitrophenyl)(3-((methoxycarbonyl)oxy)-1,4-dioxo-1,4-dihydronaphthalen-2-yl)methyl)carbamate [6c]”, for which the IC50 in data set [1] (setting [5]) is 148 µM; in the data set on SCC-9 (OSCC cells) (setting [6]) it was 56.1 µM. Also, the “Selective Index (S.I.)” value in the data set with SCC-9 (OSCC cells) was 2.63.
With `COC(=O)OC1=C(C(c2ccc(Br)cc2)N(Cc2ccccc2)C(=O)OC)C(=O)c2ccccc2C1=O` (centres unmarked) [5d, Methylbenzyl((4-bromophenyl)(3-((methoxycarbonyl)oxy)-1,4-dioxo-1,4-dihydronaphthalen-2-yl)methyl)carbamate], the IC50 turned out to be 69.1 µM in data set [1] (setting [3]) and 38.8 µM with SCC-9 (OSCC cells) (setting [4]). Further, the “Selective Index (S.I.)” value in the data set with SCC-9 (OSCC cells) was 1.78.
With “Methyl benzyl((3-chloro-phenyl)(3-((methoxycarbonyl)oxy)-1,4-dioxo-1,4-dihydronaphthalen-2-yl)methyl)carbamate [6i]”, the half-maximal inhibitory concentration (IC50) in data set [1] (setting [5]) amounted to 73.5 µM; in the data set with SCC-9 (OSCC cells) (setting [6]) it was 70.7 µM. In the data set on SCC-9 (OSCC cells), the “Selective Index (S.I.)” value amounted to 1.03.
Regarding `COC(=O)OC1=C(C(c2cccc(Cl)c2)N(Cc2ccccc2)C(=O)OC)C(=O)c2ccccc2C1=O` (centres unmarked) [5i, Methylbenzyl((3-chlorophenyl)(3-((methoxycarbonyl)oxy)-1,4-dioxo-1,4-dihydronaphthalen-2-yl)methyl)carbamate], the IC50 in data set [1] (setting [3]) worked out at 42.6 µM; with SCC-9 (OSCC cells) (setting [4]) it was 23.9 µM. The “Selective Index (S.I.)” value in the data set with SCC-9 (OSCC cells) came out at 1.77.
In the case of `COc1cccc2c1C(=O)c1c(O)c3c(c(O)c1C2=O)C[C@@](O)(C(=O)CO)C[C@@H]3O[C@H]1C[C@H](N)[C@H](O)[C@H](C)O1` [Doxorubicin], the IC50 in data set [1] (setting [3]) turned out to be 18.7 µM; in the data set on SCC-4 cells (Homo sapiens, SCC-4, MTT, 48 h), 5.87 µM; in data set [2] it was 4.73 µM; with SCC-25 cells (Homo sapiens, SCC-25, MTT, 48 h) it was 1.12 µM; in the data set with SCC-9 (OSCC cells) (setting [4]), 7.2 µM. The “Stability at 37 °C (retained cytotoxicity)” value in the data set with SCC9 cells was “stable even after 48 h”. The “Average S.I.” value in data set [2] amounted to 3.94. For the same compound, in the data set with SCC-9 (OSCC cells), the “Selective Index (S.I.)” value was determined as 2.57.
With “Methylbenzyl((3-((methoxycarbonyl)oxy)-1,4-dioxo-1,4-dihydronaphthalen-2-yl)(m-tolyl) methyl)carbamate [5h]”, the IC50 in data set [1] (setting [5]) was 49.1 µM; in the data set on SCC-9 (OSCC cells) (setting [6]), 24.9 µM. For the same compound, the “Selective Index (S.I.)” value in the data set on SCC-9 (OSCC cells) is 1.97.
On the same counts, the results for “Methyl benzyl((phenyl)(3-((methoxycarbonyl)oxy)-1,4-dioxo-1,4-dihydronaphthalen-2-yl)methyl)carbamate [6b]” are 230 µM, 82.2 µM and 2.79.
Regarding `COC(=O)OC1=C(C(c2ccc(OC)cc2)N(Cc2ccccc2)C(=O)OC)C(=O)c2ccccc2C1=O` (centres unmarked) [5g, Methylbenzyl((3-((methoxycarbonyl)oxy)-1,4-dioxo-1,4-dihydronaphthalen-2-yl)(4-methoxyphenyl)methyl)carbamate], the IC50 amounted to 35.5 µM in data set [1] (setting [3]) and 21 µM in the data set on SCC-9 (OSCC cells) (setting [4]). The “Selective Index (S.I.)” value in the data set with SCC-9 (OSCC cells) is 1.68.
For `CC(C)=CCC1=C(O)C(=O)c2ccccc2C1=O` [Lapachol, reference compound], the IC50 in data set [1] (Homo sapiens, Fibroblast, read-out: Primary Gengival Fibroblast IC50) was 102 µM; with SCC-4 cells (Homo sapiens, SCC-4, 48 h), 55.3 µM; in data set [2], 61.1 µM; with SCC-25 cells (Homo sapiens, SCC-25, 48 h), 85.9 µM; in the data set with SCC-9 (OSCC cells) (Homo sapiens, SCC-9, 48 h, read-out: SCC9 IC50) it was 42.1 µM; in the data set on SCC-9 (OSCC cells) (Homo sapiens, SCC-9, 48 h, read-out: SCC9—Oral Cancer IC50) it was 42.1 µM. The “Average S.I.” value in data set [2] is listed as 1.66. Besides, the “Selective Index (S.I.)” value with SCC-9 (OSCC cells) is on record as 2.41.
Consider `COC(=O)OC1=C(C(c2ccccc2)N(Cc2ccccc2)C(=O)OC)C(=O)c2ccccc2C1=O` (centres unmarked) [5b, Methylbenzyl((3-((methoxycarbonyl)oxy)-1,4-dioxo-1,4-dihydronaphthalen-2yl)(phenyl)methyl)carbamate], for which the IC50 in data set [1] (setting [3]) was 55.7 µM; in the data set on SCC-9 (OSCC cells) (setting [4]) it was 28.5 µM. Further, the “Selective Index (S.I.)” value in the data set on SCC-9 (OSCC cells) came to 1.95.
With “Methyl benzyl((3-methyl-phenyl)(3-((methoxycarbonyl)oxy)-1,4-dioxo-1,4-dihydronaphthalen-2-yl)methyl)carbamate [6h]”, the concentration for half-maximal inhibition (IC50) stood at 53.7 µM in data set [1] (setting [5]); 53.7 µM in data set [1] (MTT, Table 2, read-out: Primary Gingival Fibroblast IC50); 98.4 µM in the data set with SCC-4 cells (MTT, 48 h); 56.6 µM in the data set with SCC-25 cells (MTT, 48 h); 11.1 µM in the data set on SCC-9 (OSCC cells) (setting [6]). For the same compound, the “Average S.I.” value in data set [2] came out at 1.29. Moreover, in the data set with SCC-9 (OSCC cells), the “Selective Index (S.I.)” value stood at 4.83.
Turning to `COC(=O)N(Cc1ccccc1)C(C1=C(O)C(=O)c2ccccc2C1=O)c1ccc(F)cc1` (centres unmarked) [6e], the results for the IC50 (in data set [1] (setting [3]); in the data set with SCC-9 (OSCC cells) (setting [4])) were 197 µM and 73.2 µM, respectively. In addition, the “Selective Index (S.I.)” value in the data set with SCC-9 (OSCC cells) is reported as 2.68.
Consider “Methyl benzyl((4-chlorophenyl)(3-((methoxycarbonyl)oxy)-1,4-dioxo-1,4-dihydronaphthalen-2-yl)methyl)carbamate [5a]”, for which the figures for the IC50 (in data set [1] (setting [5]); in the data set with SCC-9 (OSCC cells) (setting [6])) were 37.5 µM and 23.2 µM, respectively. The “Selective Index (S.I.)” value in the data set with SCC-9 (OSCC cells) is recorded as 1.61.

These data come from paper PMC9822194, “Chemoselective Synthesis of Mannich Adducts from 1,4-Naphthoquinones and Profile as Autophagic Inducers in Oral Squamous Cell Carcinoma” (Molecules, 2022).
